Key:
[1] = tested on: immunocytes (CD4+, CD4+/CD44+, CD8+, CD8+/IFNη, Foxp3, NK, and NK/IFNγ); assay: Immunocyte analysis in MC38 homograft model; format: in vivo, mouse; details: lomitapide alone
Experimental: For mouse homograft tumor model, experiments were conducted using female C57B6/N mice (wild-type, 6 weeks old) with MC38 colorectal cancer and B16F10 melanoma cell lines. MC38 colorectal cancer and B16F10 melanoma cell lines were each subcutaneously injected at a dose of 2×10^5 cells. Lomitapide used in the two models was formulated with 45% saline, 40% PEG300, 5% Tween-80, and 10% DMSO.
From 10 days after the DMC38 colorectal cancer cells injection, lomitapide was intraperitoneally injected five times at a dose of 20 mg/kg, and anti-PD-1 mAb (clone RMP1-14, BioXCell, West Lebanon, NH, USA) or rat IgG2a iso-type control (clone 2A3, BioXCell, BE0089) in PBS was administered at a dose of 10 mg/kg at days 1, 4, 7, and 10 (FIGS. 18a and 18b).
In addition, MC38 colorectal cancer cells were analyzed for immunocytes (CD4+, CD4+/CD44+, CD8+, CD8+/IFNη, Foxp3, NK, and NK/IFNγ).

[2] = tested on: A2780; assay: Cell viability, CellTiterGlo, 72 hours; format: cell-based; details: Homo sapiens, A2780 cells, Ovary
How it was run: (§1)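 Cancer cell lines were exposed to various concentrations of lomitapide at 37° C in 5% or 10% CO2. After equilibration to room temperature for 1 hour, CellTiterGlo reagent was added, and luminescence read 1 hour later gave percent viability.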

[3] = tested on: HCC 1569; assay: Cell viability, CellTiterGlo, 72 hours; format: cell-based; details: Homo sapiens, HCC1569, HCC 1569 cells, Breast
How it was run: as §1

[4] = tested on: Colo 205; assay: Cell viability, CellTiterGlo, 72 hours; format: cell-based; details: Homo sapiens, Colo 205 cells, Colon
How it was run: as §1

[5] = tested on: NCI-N87; assay: Cell viability, CellTiterGlo, 72 hours; format: cell-based; details: Homo sapiens, NCI-N87 cells, Stomach
How it was run: as §1

[6] = tested on: HCC38; assay: Cell viability, CellTiterGlo, 72 hours; format: cell-based; details: Homo sapiens, HCC38 cells, Breast
How it was run: as §1

[7] = tested on: U118MG; assay: Cell viability, CellTiterGlo, 72 hours; format: cell-based; details: Homo sapiens, U-118-MG, U118MG cells, Brain
How it was run: as §1

[8] = tested on: A549; assay: Cell viability, CellTiterGlo, 72 hours; format: cell-based; details: Homo sapiens, A549 cells, Lung
How it was run: as §1

[9] = tested on: HCT116; assay: Cell viability, CellTiterGlo, 72 hours; format: cell-based; details: Homo sapiens, HCT-116, HCT116 cells, Colon
How it was run: as §1

[10] = tested on: SK-N-FI; assay: Cell viability, CellTiterGlo, 72 hours; format: cell-based; details: Homo sapiens, SK-N-FI cells, Brain
How it was run: as §1

[11] = tested on: BEN; assay: Cell viability, CellTiterGlo, 72 hours; format: cell-based; details: BEN cells, Lung
How it was run: as §1

[12] = tested on: RPMI 8226; assay: Cell viability, CellTiterGlo, 72 hours; format: cell-based; details: Homo sapiens, RPMI 8226 cells, Blood
How it was run: as §1

[13] = tested on: Jurkat; assay: Cell viability, CellTiterGlo, 72 hours; format: cell-based; details: Homo sapiens, Jurkat cells, Blood
How it was run: as §1

[14] = tested on: Saos-2 EC; assay: Cell viability, CellTiterGlo, 72 hours; format: cell-based; details: Homo sapiens, Saos-2 EC cells, Bone
How it was run: as §1

[15] = tested on: M07e; assay: Cell viability, CellTiterGlo, 72 hours; format: cell-based; details: M-07e, M07e cells, Blood
How it was run: as §1

[16] = tested on: EFO-27; assay: Cell viability, CellTiterGlo, 72 hours; format: cell-based; details: Homo sapiens, EFO-27 cells, Ovary
How it was run: as §1

[17] = tested on: p-S6K, p-S6, LC3; assay: Cell signaling assay, western blot, MDA-MB-468; format: cell-based, human; details: 0, 5, and 10 μM, FIG. 7d
Experimental: (§2) Cells treated with various concentrations (0, 5, and 10 μM) of lomitapide were lysed with RIPA buffer containing a protease-inhibitor cocktail. The whole-cell lysate was incubated on ice for 30 minutes. After centrifugation at 4° C. and 13,300×g for 15 minutes, the supernatant was collected. For use as controls, HCT116, SW480, HT29, MDA-MB-231, and MDA-MB-468 cells were treated with 1 μM of torin, known as an mTOR inhibitor.
(§3) For western blot analysis, the supernatant was loaded onto 10% SDS-PAGE gel. The separated proteins were blotted onto a PVDF membrane. Then, the blots were incubated with antibodies at 4° C. for 12 hours as follows (Table 2).
(§4) Then, the blots were washed with TBST (a mixture of tris-buffered saline (TBS) and Tween 20), incubated with horseradish peroxidase-conjugated secondary antibody (Cell signaling) at 37° C. for 1 hour, and washed, followed by detecting enhanced chemiluminescence (ECL; Amersham).

[18] = tested on: p-AKT, p-mTOR, p-S6K, p-S6; assay: Cell signaling assay, western blot, HCT116; format: cell-based, human; details: 0, 5, and 10 μM, dose-dependent, FIG. 6
Experimental: as §2, §3, §4

[19] = tested on: HCT116; assay: Viability assay for lomitapide-treated colorectal cells (CellTiter-Glo, 24); format: cell-based, human
Experimental: (§5) NCM460, HCT116, HT29, and SW480 cell lines were each seeded at a density of 10^4 cells/well into 96-well plates and incubated 37° C. for 24 hours before treatment with various concentrations (0, 1, 2, 5, and 10 μM) of lomitapide (Sigma Aldrich, Missouri, USA). After treatment of the cells with lomitapide at 37° C. for 24 in a 5% CO2 atmosphere, 100 μL of an assay reagent (CellTiter-Glo® Reagent) was added to each well. Then, luminescence was read using VICTOR X Multilabel Reader (PerkinElmer, Massachusetts, USA) and used to calculate cell viability (%). Results are depicted in FIGS. 2 to 4.

[20] = tested on: HT29; assay: as above; format: cell-based, human; details: 0, 1, 2, 5, and 10 μM, dose-dependent
Experimental: as §5

[21] = tested on: SW480; assay: as above; format: cell-based, human; details: 0, 1, 2, 5, and 10 μM, dose-dependent
Experimental: as §5

Compound: O=C(NC1CCN(CCCCC2(C(=O)NCC(F)(F)F)c3ccccc3-c3ccccc32)CC1)c1ccccc1-c1ccc(C(F)(F)F)cc1 [lomitapide, N-(2,2,2-trifluoroethyl)-9-[4-[4-[[[4′-(trifluoromethyl)[1,1′-biphenyl]2-yl]carbonyl]amino]-1-piperidinyl]butyl]-9H-fluoren-9-carboxamide]
- level of CD4+ immunocytes vs group treated with anti-PD-1 mAb alone [1]: superior
- level of CD4+/CD44+ immunocytes vs group treated with anti-PD-1 mAb alone [1]: similar
- level of CD8+ immunocytes vs group treated with anti-PD-1 mAb alone [1]: similar
- level of CD8+/IFNη immunocytes vs group treated with anti-PD-1 mAb alone [1]: similar
- level of Foxp3 immunocytes vs group treated with anti-PD-1 mAb alone [1]: similar
- level of NK immunocytes vs group treated with anti-PD-1 mAb alone [1]: superior
- level of NK/IFNγ immunocytes vs group treated with anti-PD-1 mAb alone [1]: superior
- IC50 [2]: 2700 nM
- IC50 [3]: 2900 nM
- IC50 [4]: 3.4 µM
- IC50 [5]: 3.3 µM
- IC50 [6]: 6 µM
- IC50 [7]: 2500 nM
- IC50 [8]: 3.6 µM
- IC50 [9]: 5 µM
- IC50 [10]: 3.4 µM
- IC50 [11]: 4.2 µM
- IC50 [12]: 2100 nM
- IC50 [13]: 3000 nM
- IC50 [14]: 3.6 µM
- IC50 [15]: 4.2 µM
- IC50 [16]: 4 µM
- conversion from LC3I into LC3II [17]: increased induction of conversion from LC3I into LC3II
- phosphorylation levels of target proteins (p-S6K and p-S6) [17]: remarkably decreased phosphorylation levels
- phosphorylation of target proteins levels (p-AKT, p-mTOR, p-S6K, p-S6) [18]: decreased phosphorylation
- cell viability ([19]; HCT116, 0, 1, 2, 5, and 10 μM, dose-dependent): reduced the viability
- cell viability of cancer cells compared to normal cells ([19]; HCT116 vs normal human colonic epithelial cells (NCM460), FIG. 2): decreased cell viability
- cell viability [20]: reduced the viability
- cell viability [21]: reduced the viability
